Test results: ChEMBL document CHEMBL3393055, “6,6-Fused heterocyclic ureas as highly potent TRPV1 antagonists” (Bioorg Med Chem Lett, 2015); call rule not given here

Assays:
[1] = molecular target: T1, Transient receptor potential cation channel subfamily V member 1 (Homo sapiens, UniProt Q8NER1); assay: Antagonist activity at human TRPV1 assessed as inhibition of capsaicin-induced effect by FLIPR assay
[2] = molecular target: T1, Transient receptor potential cation channel subfamily V member 1; assay: Antagonist activity at human TRPV1 assessed as inhibition of capsaicin-induced effect at 1 uM by FLIPR assay
Mus musculus [3] = assay: Analgesic activity in formalin-induced mouse pain model at 0.3 mg/kg, po; assay type: functional
[4] = molecular target: T1, Transient receptor potential cation channel subfamily V member 1; assay: Antagonist activity at human TRPV1 assessed as inhibition of NADA-induced effect at 1 uM by FLIPR assay
[5] = molecular target: T1, Transient receptor potential cation channel subfamily V member 1; assay: Antagonist activity at human TRPV1 assessed as inhibition of 45 degC heat-induced effect at 1 uM by FLIPR assay
Mus musculus [6] = assay: Analgesic activity in formalin-induced mouse pain model at 10 mg/kg, po; assay type: functional
[7] = molecular target: T1, Transient receptor potential cation channel subfamily V member 1; assay: Antagonist activity at human TRPV1 assessed as inhibition of pH-induced effect at 1 uM by FLIPR assay

T1 sequence (Q8NER1 whole entry): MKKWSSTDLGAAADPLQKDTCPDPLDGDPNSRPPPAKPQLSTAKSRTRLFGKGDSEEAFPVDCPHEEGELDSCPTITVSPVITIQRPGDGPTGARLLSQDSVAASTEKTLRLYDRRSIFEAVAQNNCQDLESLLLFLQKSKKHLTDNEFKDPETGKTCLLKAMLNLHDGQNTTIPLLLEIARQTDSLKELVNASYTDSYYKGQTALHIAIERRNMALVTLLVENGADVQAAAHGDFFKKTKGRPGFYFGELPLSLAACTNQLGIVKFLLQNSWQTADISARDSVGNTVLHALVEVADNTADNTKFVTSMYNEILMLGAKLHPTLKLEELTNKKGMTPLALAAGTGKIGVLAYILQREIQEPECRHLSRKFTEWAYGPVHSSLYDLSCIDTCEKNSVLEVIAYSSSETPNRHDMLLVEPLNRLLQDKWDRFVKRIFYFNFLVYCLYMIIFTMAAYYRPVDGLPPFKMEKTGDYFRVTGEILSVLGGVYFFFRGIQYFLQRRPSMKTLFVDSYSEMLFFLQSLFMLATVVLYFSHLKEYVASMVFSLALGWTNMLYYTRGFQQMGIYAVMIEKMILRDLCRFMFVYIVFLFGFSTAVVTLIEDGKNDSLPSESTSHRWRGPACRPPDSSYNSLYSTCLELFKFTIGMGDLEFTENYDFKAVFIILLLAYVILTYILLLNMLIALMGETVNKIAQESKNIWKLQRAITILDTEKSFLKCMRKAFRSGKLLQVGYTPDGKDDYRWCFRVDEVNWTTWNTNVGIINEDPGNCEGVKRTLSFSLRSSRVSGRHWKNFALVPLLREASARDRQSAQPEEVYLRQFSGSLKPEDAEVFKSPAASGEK

Row | Ki ([1]; read-out: Ki) | SMILES | also measured
1 | 7.1 nM | CC1CCN(c2nc(C(F)(F)F)ccc2CNC(=O)Nc2ccc3cccnc3c2)CC1 | –
2 | – | CC1CCN(c2nc(C(F)(F)F)ccc2CNC(=O)Nc2ccnc3ccccc23)CC1 | Ki [1]: Agonist
3 | 7.2 nM | CC1CCN(c2nc(C(F)(F)F)ccc2CNC(=O)Nc2ccc3cnccc3c2)CC1 | –
4 | 7.8 nM | CC1CCN(c2nc(C(F)(F)F)ccc2CNC(=O)Nc2ccc3cncnc3c2)CC1 | –
5 | – | CC1CCN(c2nc(C(F)(F)F)ccc2CNC(=O)Nc2nccc3cccnc23)CC1 | Ki [1]: Not Active
6 | 13.8 nM | CC(C)(C)c1ccc(CNC(=O)Nc2cccc3cnccc23)cc1 | –
7 | 48.1 nM | CC1CCN(c2nc(C(F)(F)F)ccc2CNC(=O)Nc2cccc3nccnc23)CC1 | –
8 | 9.5 nM | CC1CCN(c2nc(C(F)(F)F)ccc2CNC(=O)Nc2cnc3ccccc3c2)CC1 | –
9 | – | CC1CCN(c2nc(C(F)(F)F)ccc2CNC(=O)Nc2ccc3ncccc3c2)CC1 | inhibition [2]: 40%
10 | – | CC1CCN(c2nc(C(F)(F)F)ccc2CNC(=O)Nc2ccc3ccccc3n2)CC1 | Ki [1]: Not Active
11 | – | CC1CCN(c2nc(C(F)(F)F)ccc2CNC(=O)Nc2nccc3ccccc23)CC1 | Ki [1]: Not Active
12 | – | CC1CCN(c2nc(C(F)(F)F)ccc2CNC(=O)Nc2cc3ccccc3cn2)CC1 | inhibition [2]: 10%
13 | 0.7 nM | CC1CCN(c2nc(C(F)(F)F)ccc2CNC(=O)Nc2cccc3ncccc23)CC1 | –
14 | 0.2 nM | CC1CCN(c2nc(C(F)(F)F)ccc2CNC(=O)Nc2cccc3cnccc23)CC1 | MPE (Mus musculus [3]): 18%; Ki [4]: 0.02 nM; IC50 [5]: 0.55 nM; MPE (Mus musculus [6]): 73%; IC50 [7]: Not Active
15 | 8.9 nM | CC1CCN(c2nc(C(F)(F)F)ccc2CNC(=O)Nc2ccc3cnncc3c2)CC1 | –
16 | – | CC1CCN(c2nc(C(F)(F)F)ccc2CNC(=O)Nc2ccc3ncncc3c2)CC1 | Ki [1]: Agonist
17 | 18.3 nM | O=C(NCc1ccc(C(F)(F)F)cc1)Nc1cccc2cnccc12 | –
18 | 0.4 nM | CC1CCN(c2nc(C(F)(F)F)ccc2CNC(=O)Nc2cccc3ccncc23)CC1 | –
19 | 91.6 nM | CC1CCN(c2nc(C(F)(F)F)ccc2CNC(=O)Nc2cccc3cccnc23)CC1 | –
20 | 8.4 nM | CC1CCN(c2nc(C(F)(F)F)ccc2CNC(=O)Nc2ccc3ccncc3c2)CC1 | –
21 | 1.8 nM | CC1CCN(c2nc(C(F)(F)F)ccc2CNC(=O)Nc2cncc3ccccc23)CC1 | –
